Experimental data published in ChEMBL document CHEMBL1201862, “PubChem BioAssay data set” (2004).
Values belong to the compound of their own block, whether it stands above or below them. Activity calls are given as the source filed them.

Columns and labels:
Estrogen receptor beta [1] = target: T1, Estrogen receptor beta (Homo sapiens, UniProt Q92731); assay: blockers of SRC-3 recruitment to ERβ – biochemical, ELISA, streptavidin-HRP readout, orthogonal assay, confirmation (AID 1060)
[2] = NIH-3T3 fibroblast cytotoxicity, dose response, cytotoxicity control, cell-based, fluorescence, Alamar Blue, secondary assay (AID 2327); type: functional;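 also: NIH-3T3 mouse fibroblasts cultured with fluconazole at 8 µg/mL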
[3] = fluconazole-exposed Candida albicans growth modulators – fluorescence, retest, confirmation (AID 2467); type: functional, cell-based
[4] = target: T2, Mannose-6-phosphate isomerase (Homo sapiens, UniProt P34949); assay: MPI inhibition at elevated mannose 6-phosphate – biochemical, fluorescence intensity, high mannose 6-phosphate, primary screen (AID 1220)
T2 sequence (P34949 whole entry): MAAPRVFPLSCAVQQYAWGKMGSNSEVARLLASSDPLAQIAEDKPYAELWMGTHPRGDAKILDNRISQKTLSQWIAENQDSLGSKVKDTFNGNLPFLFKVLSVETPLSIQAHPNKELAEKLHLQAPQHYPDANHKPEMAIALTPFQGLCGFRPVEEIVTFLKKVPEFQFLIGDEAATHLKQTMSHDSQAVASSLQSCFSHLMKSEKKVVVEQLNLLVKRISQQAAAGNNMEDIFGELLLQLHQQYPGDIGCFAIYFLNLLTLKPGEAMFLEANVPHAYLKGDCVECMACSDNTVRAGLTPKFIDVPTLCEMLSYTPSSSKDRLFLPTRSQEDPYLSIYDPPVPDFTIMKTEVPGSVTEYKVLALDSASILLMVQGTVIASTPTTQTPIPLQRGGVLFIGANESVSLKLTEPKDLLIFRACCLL

[5] = target: T3, Carboxy-terminal domain RNA polymerase II polypeptide A small phosphatase 1 (Homo sapiens, UniProt Q9GZU7); assay: CTDSP1 inhibitors, concentration-response, biochemical, absorbance readout, ultra-high-throughput screen actives (AID 540297); type: functional
T3 sequence (Q9GZU7 whole entry): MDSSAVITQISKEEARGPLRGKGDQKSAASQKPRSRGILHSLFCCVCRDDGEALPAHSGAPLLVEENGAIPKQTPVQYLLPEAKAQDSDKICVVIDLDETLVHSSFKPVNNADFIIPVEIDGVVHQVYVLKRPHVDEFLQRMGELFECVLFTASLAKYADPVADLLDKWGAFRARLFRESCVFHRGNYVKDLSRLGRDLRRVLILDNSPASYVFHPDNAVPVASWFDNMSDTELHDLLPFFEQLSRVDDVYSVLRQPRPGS

BJ [6] = assay: BJ-TERT fibroblast viability loss – cell-based, RAS-independent, luminescence, dose response (AID 1933); type: functional; conditions: Homo sapiens
BJ [7] = assay: cells; type: functional, cell-based; conditions: Homo sapiens
BJ [8] = assay: BJ-TERT-LT-ST fibroblast viability loss – cell-based, RAS-independent, luminescence, dose response (AID 1935); type: functional; conditions: Homo sapiens;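 also: BJ fibroblasts immortalized with TERT plus LT and ST oncogenes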
[9] = DRD fibroblast viability loss – cell-based, non-viral oncogenic, luminescence, dose response (AID 1934); type: functional; conditions: Homo sapiens
Estrogen receptor beta [10] = target: T1, Estrogen receptor beta
Prothrombin = Prothrombin (Homo sapiens, UniProt P00734); assay: Thrombin 1536 HTS Dose Response Confirmation. [Related pubchem assays: 1046 (Thrombin 1536 HTS; hits were confirmed in this assay)]; type: functional
[11] = Trypanosoma cruzi growth suppression in host cells – NIH3T3 host cells, beta-gal luminescence, confirmation (AID 2044); type: functional, cell-based;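 also: intracellular parasites grown in NIH/3T3 mouse fibroblasts as host cells; luminescent beta-galactosidase reporter signal from transgenic T. cruzi replicating inside host cells; inhibitors lower the luminescence signal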
[12] = NIH3T3 cell viability loss – ATP luminescence, mouse fibroblasts, counter-screen, dose response (AID 2010); type: functional, cell-based;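 also: cells exposed to compound for about 90 hours before reading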
[13] = Luminescence-based cell-based high throughput dose response assay to identify activators of the DAF-12 from the parasite S. stercoralis (ssDAF-12).; type: functional
[14] = target: T4, Oxysterols receptor LXR-beta (Homo sapiens, UniProt P55055); assay: LXR agonists, Gal4 luciferase reporter, dose response, counter-screen for ssDAF-12 agonist project, cell-based, luminescence, HEK293, S. stercoralis campaign (AID 720737); type: functional; conditions: read-out: IC50 (the source's name)
T4 sequence (P55055 whole entry): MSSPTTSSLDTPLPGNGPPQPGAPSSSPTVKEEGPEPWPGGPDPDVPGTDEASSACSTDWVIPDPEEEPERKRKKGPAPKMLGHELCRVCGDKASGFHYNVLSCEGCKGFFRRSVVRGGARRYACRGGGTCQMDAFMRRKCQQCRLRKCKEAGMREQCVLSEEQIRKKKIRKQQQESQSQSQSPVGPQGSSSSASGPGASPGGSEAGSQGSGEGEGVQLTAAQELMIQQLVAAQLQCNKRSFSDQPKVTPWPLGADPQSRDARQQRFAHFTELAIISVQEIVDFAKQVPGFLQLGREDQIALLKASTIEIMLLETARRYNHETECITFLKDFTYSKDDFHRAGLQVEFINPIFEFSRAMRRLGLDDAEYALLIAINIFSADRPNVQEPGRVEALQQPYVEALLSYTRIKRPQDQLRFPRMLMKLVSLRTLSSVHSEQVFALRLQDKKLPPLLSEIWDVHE

[15] = mitochondrial function rescue without frataxin homolog – Friedreich's ataxia, plus single-dose screen, dose response (AID 1465); type: functional;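 also: yeast depleted of Yfh1p frataxin homolog grown on glycerol needing respiration; WST-1 tetrazolium dye reduction as measure of cellular dehydrogenase metabolic activity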
[16] = viability of uninfected HEp-2 cells – cell-based, HTS, cytotoxicity control for RSV inhibitor project, dose response (AID 2410); type: functional; conditions: human respiratory syncytial virus
[17] = Luminescence Cell-Based Dose Retest to Confirm Inhibitors of Cancer Stem Cells. [Related pubchem assays (depositor defined):AID2717, AID2721]; type: functional; conditions: Homo sapiens
[18] = target: T5, Ubiquitin-conjugating enzyme E2 N (Homo sapiens, UniProt P61088); type: functional;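 also: Dose-response confirmation in a TR-FRET assay detecting UBC13-driven polyubiquitin chain formation, inhibition measured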
T5 sequence (P61088 whole entry): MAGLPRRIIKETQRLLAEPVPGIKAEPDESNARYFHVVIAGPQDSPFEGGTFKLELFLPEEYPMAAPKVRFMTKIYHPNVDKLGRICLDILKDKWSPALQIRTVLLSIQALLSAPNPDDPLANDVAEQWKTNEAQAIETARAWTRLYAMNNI

[19] = target: Neurotensin receptor type 1 (Homo sapiens, UniProt P30989); type: functional;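 also: Image-based confirmatory dose-response assay measuring agonist activity at NTR1; NTR1-expressing U2OS osteosarcoma cells imaged for beta-arrestin GFP spot formation; agonist potency where compounds increase beta-arrestin recruitment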
Neurotensin receptor type 1, sequence (P30989 whole entry): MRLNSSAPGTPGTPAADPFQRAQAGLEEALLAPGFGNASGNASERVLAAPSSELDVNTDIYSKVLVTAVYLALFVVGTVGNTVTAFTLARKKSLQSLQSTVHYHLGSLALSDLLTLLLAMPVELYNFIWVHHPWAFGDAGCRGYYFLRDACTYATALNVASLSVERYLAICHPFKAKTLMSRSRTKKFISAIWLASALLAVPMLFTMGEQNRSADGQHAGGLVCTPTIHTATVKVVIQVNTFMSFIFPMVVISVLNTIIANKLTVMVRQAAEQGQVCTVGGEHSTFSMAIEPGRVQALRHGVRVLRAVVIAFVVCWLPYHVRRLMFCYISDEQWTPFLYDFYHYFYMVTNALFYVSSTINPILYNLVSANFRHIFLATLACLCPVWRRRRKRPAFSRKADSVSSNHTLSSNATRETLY

INS1 = assay: INS-1E survival protection against cytokine death – cell-based, luminescence, retest, dose response (AID 449756); type: functional; conditions: Rattus norvegicus;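 also: cell death triggered by IL-1 beta plus TNF-alpha plus IFN-gamma mixture; protective hits raise ATP signal compared with cytokine alone wells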
H9c2 = assay: cells; type: functional, cell-based; conditions: Rattus norvegicus, H9c2, Myocardium;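 also: confirmatory concentration-response retest of ultra-high-throughput screening hits for modulation of myocardial damage; cell death induced by hydrogen peroxide oxidative stress; compound pretreatment for 60 min then peroxide exposure for 2 h; potency is for protecting the cells against peroxide damage rather than for killing them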
[20] = target: T6, Rac GTPase-activating protein 1 (Homo sapiens, UniProt Q9H0H5); assay: blockers of MgcRacGAP-driven Rac1 GTP hydrolysis – biochemical, ADP Hunter fluorescence, primary and confirmatory, confirmation (AID 624330); type: functional
T6 sequence (Q9H0H5 whole entry): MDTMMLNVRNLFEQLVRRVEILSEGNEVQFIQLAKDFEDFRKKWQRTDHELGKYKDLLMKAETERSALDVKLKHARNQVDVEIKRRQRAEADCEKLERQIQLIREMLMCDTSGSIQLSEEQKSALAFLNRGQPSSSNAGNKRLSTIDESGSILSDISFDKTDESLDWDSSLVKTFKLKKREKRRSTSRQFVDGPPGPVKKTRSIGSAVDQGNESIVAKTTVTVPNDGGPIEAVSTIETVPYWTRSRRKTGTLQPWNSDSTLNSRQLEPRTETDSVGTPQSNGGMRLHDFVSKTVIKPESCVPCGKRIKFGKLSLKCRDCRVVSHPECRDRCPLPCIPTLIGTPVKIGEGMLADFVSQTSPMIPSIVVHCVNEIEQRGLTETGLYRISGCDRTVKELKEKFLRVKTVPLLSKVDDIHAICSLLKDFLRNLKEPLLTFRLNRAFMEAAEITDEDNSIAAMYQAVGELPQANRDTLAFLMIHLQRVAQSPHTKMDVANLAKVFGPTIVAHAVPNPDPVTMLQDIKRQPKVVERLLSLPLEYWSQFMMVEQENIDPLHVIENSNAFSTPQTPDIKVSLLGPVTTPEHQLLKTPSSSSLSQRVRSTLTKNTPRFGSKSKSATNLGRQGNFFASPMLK

Estrogen receptor = target: T7, Estrogen receptor (Homo sapiens, UniProt P03372);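 also: potency for inhibiting coactivator peptide recruitment to the receptor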
T7 sequence (P03372 whole entry): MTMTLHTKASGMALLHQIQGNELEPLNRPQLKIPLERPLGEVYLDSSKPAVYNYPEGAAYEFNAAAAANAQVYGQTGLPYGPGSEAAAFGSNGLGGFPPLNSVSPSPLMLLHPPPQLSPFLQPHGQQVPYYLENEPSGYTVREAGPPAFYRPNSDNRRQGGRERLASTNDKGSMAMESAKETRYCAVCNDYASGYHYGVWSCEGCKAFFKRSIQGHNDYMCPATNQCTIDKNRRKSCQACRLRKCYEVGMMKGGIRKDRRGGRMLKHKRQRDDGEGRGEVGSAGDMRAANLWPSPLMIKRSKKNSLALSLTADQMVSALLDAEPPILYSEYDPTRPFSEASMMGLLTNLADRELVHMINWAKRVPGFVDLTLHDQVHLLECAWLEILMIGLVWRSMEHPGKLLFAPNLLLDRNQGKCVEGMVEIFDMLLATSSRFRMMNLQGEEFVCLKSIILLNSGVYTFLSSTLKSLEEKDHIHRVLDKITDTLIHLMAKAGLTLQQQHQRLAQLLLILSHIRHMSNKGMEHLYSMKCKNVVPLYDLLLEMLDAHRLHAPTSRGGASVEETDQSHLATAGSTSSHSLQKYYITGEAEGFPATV

[21] = viability of PTEN-deleted HCT116 cells – cell-based, HCT116 PTEN knockout, dose response (AID 1047); type: functional;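 also: HCT116 colon tumor cells with PTEN knocked out; cells exposed to compound for 60 hours before readout; potency for loss of cell viability measured by luminescence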
[22] = viability of HCT116 lacking mutant beta-catenin – cell-based, human colon tumor, dose response (AID 1045); type: functional;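 also: HCT116 colon tumor cells with beta catenin knocked out; cells exposed to compound for 60 hours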
[23] = CellTiter-Glo luminescence survival assay, SW480 colon tumor line, concentration-response curve, half-maximal inhibitory concentration (AID 1117338); type: functional
[24] = cytotoxicity toward HCT116 cells – cell-based, CellTiter-Glo luminescence, IC50, dose response (AID 1117332); type: functional; conditions: HCT-116
[25] = cytotoxicity toward Colo320 cells – cell-based, CellTiter-Glo luminescence, IC50, dose response (AID 1117334); type: functional; conditions: COLO 320
[26] = Reduced DLD-1 viability, concentration-response, CellTiter-Glo luminescence (AID 1117352); type: functional

T1 sequence (Q92731 whole entry): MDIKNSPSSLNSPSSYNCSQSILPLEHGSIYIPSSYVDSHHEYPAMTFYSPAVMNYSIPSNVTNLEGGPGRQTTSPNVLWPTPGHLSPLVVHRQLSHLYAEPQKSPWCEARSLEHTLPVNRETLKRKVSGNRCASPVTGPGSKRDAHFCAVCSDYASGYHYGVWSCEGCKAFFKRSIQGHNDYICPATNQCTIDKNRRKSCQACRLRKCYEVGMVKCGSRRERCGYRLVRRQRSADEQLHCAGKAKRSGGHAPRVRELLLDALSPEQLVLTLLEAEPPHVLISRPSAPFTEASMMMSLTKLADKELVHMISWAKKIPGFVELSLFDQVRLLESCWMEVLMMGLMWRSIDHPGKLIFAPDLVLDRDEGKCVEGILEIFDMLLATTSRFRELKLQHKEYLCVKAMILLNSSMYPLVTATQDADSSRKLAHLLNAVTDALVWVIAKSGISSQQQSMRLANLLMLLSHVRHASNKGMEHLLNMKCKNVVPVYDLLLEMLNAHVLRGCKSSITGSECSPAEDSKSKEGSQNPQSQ

IC50 (Estrogen receptor beta [1]): 0.0598 µM (not active)
SMILES: CCOC(=O)c1ccc(NC(=O)COc2ccc(-n3cnnn3)cc2)cc1

SMILES: O=C1CN2C(=Nc3ccc(Cl)cc3C2c2ccccc2)CN1 (stereo not given)
EC50 [2]: > 160 µM (inactive) | EC50 [3]: 3.04 µM (active) | IC50 (cells): 24.2 µM (active)

IC50 [4]: > 50 µM (not active) | IC50 [5]: 9.75 µM (active)
SMILES: CC(C)CCOc1ccc(C(=O)C[N+]2(C)CCOCC2)cc1

SMILES: COc1ccc(C(=O)c2cc([N+](=O)[O-])ccc2N2CCN(C)CC2)cc1
EC50 (BJ [6]): 9.22 µM (inconclusive) | EC50 (BJ [7]): 32.9 µM (active) | EC50 (BJ [8]): 4.39 µM (active) | EC50 [9]: 5.04 µM (active)

IC50 (Estrogen receptor beta [10]): > 50 µM (not active)
SMILES: O=C(CCc1ccccc1)Nc1nnc(-c2cccs2)o1

IC50 (Prothrombin): 0.00567 µM (active)
SMILES: CC(C)C(=O)n1nc(-c2cccnc2)nc1NCc1ccc(F)cc1

IC50 (Prothrombin): 1.37 µM (active)
SMILES: Nc1nc(-c2ccc(Cl)cc2)nn1C(=O)c1cccnc1

SMILES: Cc1ccc(C(=O)c2ccc(N3CCN(C)CC3)c([N+](=O)[O-])c2)cc1
EC50 (BJ [6]): > 150 µM (not active) | EC50 (BJ [7]): > 150 µM (not active) | EC50 (BJ [8]): > 150 µM (not active) | EC50 [9]: > 150 µM (not active)

IC50 (Prothrombin): 0.0232 µM (active)
SMILES: CCCC(=O)n1nc(-c2ccco2)nc1SCc1ccccc1

SMILES: CCOc1ccccc1C(=O)N[C@H](C(=O)Nc1nc2c(s1)CCCC2)C(C)C
EC50 [11]: 1.01 µM (active) | EC50 [12]: > 60 µM (inconclusive) | IC50 [13]: > 67.6 µM (inactive) | EC50 [14]: > 67.6 µM (inactive)

SMILES: CCOC(=O)c1ccc2[nH]c3c(c2c1)CN(C)CC3
IC50 (cells): 1.22 µM (active)

SMILES: CN(CCO)c1cc(N2CCC3(CC2)OCCO3)c2nonc2c1[N+](=O)[O-]
EC50 [15]: > 100 µM (active)

SMILES: N#C/C(=C/c1ccc(N2CCOCC2)o1)C(=O)N1CCOCC1
EC50 [15]: > 100 µM (active)

SMILES: CCOC(=O)c1sc(NC(=O)Cn2nnc3sc4c(c3c2=O)CCC(C(C)(C)C)C4)nc1C (stereo not given)
CC50 [16]: 23.7 µM (active) | IC50 (cells): > 25 µM (active)

SMILES: COC(=O)C1=C(C)N(Cc2ccccc2)C(NCc2ccccc2)=N[C@H]1c1cccc(C(F)(F)F)c1
AC50 [17]: 3.27 µM (active) | IC50 [18]: > 20 µM (inactive) | EC50 [19]: 13.7 µM (active) | AC50 (INS1): 8.05 µM (active)

SMILES: Oc1ccc(Cl)cc1/C=N/c1ccc2c3c(cccc13)CC2
IC50 [4]: > 50 µM (not active) | IC50 (H9c2): 9.38 µM (active) | IC50 [20]: 12.9 µM (active)

IC50 (Estrogen receptor): > 50 µM (not active) | IC50 (Estrogen receptor beta [10]): > 50 µM (not active) | IC50 (Estrogen receptor beta [1]): 78.6 µM (not active)
SMILES: O=S(=O)(Nc1nccs1)c1cc(Cl)ccc1Cl

SMILES: CC/C(=N/Nc1ccccc1)c1cnnc(-c2ccccc2)n1
IC50 (Estrogen receptor beta [10]): > 50 µM (not active) | EC50 [21]: 60.2 µM (active) | IC50 (Estrogen receptor beta [1]): 6.12 µM (not active) | EC50 [22]: 70.6 µM (active)

SMILES: c1cnc2cc3c(cc2n1)[C@@H]1CNC[C@H]3C1 [VARENICLINE]
IC50 [23]: > 6.67 µM (inactive) | IC50 [24]: > 20 µM (inactive) | IC50 [25]: > 20 µM (inactive) | IC50 [26]: > 6.67 µM (inactive)
